Literature values as cited in patent publication US8648060B2, “Use of 3-alpha-androstanediol in combination with a 5-HT1a agonist, in the treatment of sexual dysfunction” (Emotional Brain B.V., priority 2006, dated 2014).

Conditions: serum concentration; capsule

Q: What does the source list for `CCCc1nn(C)c2c(=O)[nH]c(-c3cc(S(=O)(=O)N4CCN(C)CC4)ccc3OCC)nc12.O=C(O)CC(O)(CC(=O)O)C(=O)O` [sildenafil, 1-[[3-(6,7-dihydro-1-methyl-7-oxo-3-propyl-1Hpyrazolo[4,3-d]pyrimidin-5-yl)-4-ethoxyphenyl]sulfonyl]-4-methylpiperazine citrate]?
A: Tmax of sildenafil: 0.5 to 2 h; T½: 3.5 h
